Test results taken from ChEMBL document CHEMBL1124855, “Synthesis and muscarinic activities of 1,2,4-thiadiazoles” (J Med Chem, 1990).

Columns and labels:
[1] = biological target: T1, Muscarinic acetylcholine receptor (Rattus norvegicus) (UniProt P08482+P08483+P08485+P08911+P10980)
Description: Ability to displace radioligand [3H]N-methylscopolamine (NMS) at muscarinic acetylcholine receptor from rat cortical homogenate.

[2] = biological target: T1, Muscarinic acetylcholine receptor (Rattus norvegicus); remark: listed apart in the source
Description: Affinity to displace radioligand [3H]oxotremorine (OXO) at muscarinic acetylcholine receptor from rat cortical homogenate.

[3] = tested on: Muscarinic acetylcholine receptor (Rattus norvegicus); assay: Ratio of [3H]N-methylscopolamine (NMS) to [3H]oxotremorine (OXO) at Muscarinic acetylcholine receptor from rat cortical homogenate
[4] = biological target: T1, Muscarinic acetylcholine receptor (Rattus norvegicus); assay: Ability to displace radioligand [3H]N-methylscopolamine (NMS) at Muscarinic acetylcholine receptor from rat cortical homogenate

Row | SMILES | K app [1] | K app [2] | Ratio [3] | K app [4]
1 | CC(C)c1nsc([C@@H]2CN3CCC2C3)n1 (stereo not given in full) | 0.29 µM | 0.041 µM | – | –
2 | COc1nsc(C2CN3CCC2CC3)n1 (stereo not given) | 0.9 µM | 0.033 µM | – | –
3 | CN1CCC=C(c2ncno2)C1 | 8.9 µM | 0.0077 µM | 1200 | –
4 | COc1nsc([C@@H]2CN3CCC2C3)n1 (stereo not given in full) | 2 µM | 0.006 µM | – | –
5 | OC(c1ccccc1)(c1ccccc1)c1nsc(C2CN3CCC2CC3)n1 (stereo not given) | 0.0002 µM | 6.8e-05 µM | – | –
6 | C1CC1c1nsc([C@H]2CN3CCC2C3)n1 (stereo not given in full) | 0.16 µM | 0.019 µM | – | –
7 | c1nsc([C@@H]2CN3CCC2C3)n1 (stereo not given in full) | – | 0.0056 µM | – | 6.4 µM
8 | CN(C)c1nsc([C@@H]2CN3CCC2C3)n1 (stereo not given in full) | 0.84 µM | 0.062 µM | – | –
9 | CC(C)c1nsc([C@H]2CN3CCC2C3)n1 (stereo not given in full) | 0.4 µM | 0.055 µM | – | –
10 | COC(=O)C1=CCCNC1 | 20 µM | 0.017 µM | – | –
11 | CN1CCC=C(c2ncns2)C1 | 11 µM | 0.027 µM | – | –
12 | c1ccc(Cc2nsc(C3CN4CCC3CC4)n2)cc1 (stereo not given) | 0.082 µM | 0.014 µM | – | –
13 | CCc1nsc([C@@H]2CN3CCC2C3)n1 (stereo not given in full) | 0.29 µM | 0.005 µM | – | –
14 | CCc1nsc(C2CN3CCC2CC3)n1 (stereo not given) | 0.082 µM | 0.009 µM | – | –
15 | COc1nsc([C@H]2CN3CCC2C3)n1 (stereo not given in full) | 1.8 µM | 0.017 µM | – | –
16 | C1CC1c1nsc([C@@H]2CN3CCC2C3)n1 (stereo not given in full) | 0.21 µM | 0.004 µM | – | –
17 | C1=C(c2ncns2)CNCC1 | 11 µM | 0.014 µM | – | –
18 | Cc1nsc([C@@H]2CN3CCC2C3)n1 (stereo not given in full) | 0.62 µM | 0.00062 µM | – | –

Row | SMILES | K app [1] | K app [2] | Ratio [3] | K app [4]
19 | CN(C)c1nsc([C@H]2CN3CCC2C3)n1 (stereo not given in full) | 0.99 µM | 0.098 µM | – | –
20 | Cc1nsc(C2CN3CCC2CC3)n1 (stereo not given) | 0.36 µM | 0.00078 µM | – | –
21 | c1ccc(Cc2nsc([C@H]3CN4CCC3C4)n2)cc1 (stereo not given in full) | 0.54 µM | 0.061 µM | – | –
22 | C1CC1c1nsc(C2CN3CCC2CC3)n1 (stereo not given) | 0.023 µM | 0.0028 µM | – | –
23 | c1ccc(Cc2nsc([C@@H]3CN4CCC3C4)n2)cc1 (stereo not given in full) | 0.34 µM | 0.074 µM | – | –
24 | Cc1nsc(C2=CCCN(C)C2)n1 | 1.4 µM | 0.0089 µM | – | –
25 | Cc1nsc(C2CCN(C)C2)n1 (stereo not given) | 36 µM | 0.15 µM | – | –
26 | c1nsc([C@H]2CN3CCC2C3)n1 (stereo not given in full) | 1.4 µM | 0.0013 µM | – | –
27 | Cc1nsc(C2=CCCNC2)n1 | 0.95 µM | 0.0021 µM | – | –
28 | c1nsc(C2CN3CCC2CC3)n1 (stereo not given) | 3.3 µM | 0.0077 µM | – | –
29 | Cc1nsc([C@H]2CN3CCC2C3)n1 (stereo not given in full) | 0.37 µM | 0.00045 µM | – | –
30 | Cc1nsc(C2CCNC2)n1 (stereo not given) | 18 µM | 0.054 µM | – | –
31 | CCc1nsc([C@H]2CN3CCC2C3)n1 (stereo not given in full) | 0.51 µM | 0.033 µM | – | –
32 | Cc1noc(C2=CCCN(C)C2)n1 | – | – | 390 | –
33 | CN(C)c1nsc(C2CN3CCC2CC3)n1 (stereo not given) | 0.14 µM | 0.023 µM | – | –
34 | CSc1nsc(C2CN3CCC2CC3)n1 (stereo not given) | 0.12 µM | 0.012 µM | – | –
35 | CC(C)c1nsc(C2CN3CCC2CC3)n1 (stereo not given) | 0.033 µM | 0.0031 µM | – | –
